Source: ChEMBL document CHEMBL5325488, “Discovery of SMD-3040 as a Potent and Selective SMARCA2 PROTAC Degrader with Strong in vivo Antitumor Activity” (J Med Chem, 2023)

Tests used:
[1] = target: SWI/SNF-related matrix-associated actin-dependent regulator of chromatin subfamily A member 4 (Homo sapiens, UniProt P51532); test: Binding affinity to SMARCA4 (unknown origin)
[2] = target: T1, von Hippel-Lindau disease tumor suppressor/SWI/SNF-related matrix-associated actin-dependent regulator of chromatin subfamily A member 2 (Homo sapiens, UniProt P51531+P40337); test: PROTAC activity at VHL/SMARCA2 in human MV4-11 cells assessed as induction of SMARCA2 degradation by measuring maximal efficacy incubated for 18 hrs by Western blotting analysis relative to control; format: cell-based
Target sequence in this assay (P40337 whole entry, looked up): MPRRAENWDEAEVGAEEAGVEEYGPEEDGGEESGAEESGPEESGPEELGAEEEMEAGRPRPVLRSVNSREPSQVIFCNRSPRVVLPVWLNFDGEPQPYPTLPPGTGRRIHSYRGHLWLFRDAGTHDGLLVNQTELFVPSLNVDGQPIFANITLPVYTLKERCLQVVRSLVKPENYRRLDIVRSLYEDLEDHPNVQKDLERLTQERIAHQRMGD
Target sequence in this assay (P51531 whole entry, looked up): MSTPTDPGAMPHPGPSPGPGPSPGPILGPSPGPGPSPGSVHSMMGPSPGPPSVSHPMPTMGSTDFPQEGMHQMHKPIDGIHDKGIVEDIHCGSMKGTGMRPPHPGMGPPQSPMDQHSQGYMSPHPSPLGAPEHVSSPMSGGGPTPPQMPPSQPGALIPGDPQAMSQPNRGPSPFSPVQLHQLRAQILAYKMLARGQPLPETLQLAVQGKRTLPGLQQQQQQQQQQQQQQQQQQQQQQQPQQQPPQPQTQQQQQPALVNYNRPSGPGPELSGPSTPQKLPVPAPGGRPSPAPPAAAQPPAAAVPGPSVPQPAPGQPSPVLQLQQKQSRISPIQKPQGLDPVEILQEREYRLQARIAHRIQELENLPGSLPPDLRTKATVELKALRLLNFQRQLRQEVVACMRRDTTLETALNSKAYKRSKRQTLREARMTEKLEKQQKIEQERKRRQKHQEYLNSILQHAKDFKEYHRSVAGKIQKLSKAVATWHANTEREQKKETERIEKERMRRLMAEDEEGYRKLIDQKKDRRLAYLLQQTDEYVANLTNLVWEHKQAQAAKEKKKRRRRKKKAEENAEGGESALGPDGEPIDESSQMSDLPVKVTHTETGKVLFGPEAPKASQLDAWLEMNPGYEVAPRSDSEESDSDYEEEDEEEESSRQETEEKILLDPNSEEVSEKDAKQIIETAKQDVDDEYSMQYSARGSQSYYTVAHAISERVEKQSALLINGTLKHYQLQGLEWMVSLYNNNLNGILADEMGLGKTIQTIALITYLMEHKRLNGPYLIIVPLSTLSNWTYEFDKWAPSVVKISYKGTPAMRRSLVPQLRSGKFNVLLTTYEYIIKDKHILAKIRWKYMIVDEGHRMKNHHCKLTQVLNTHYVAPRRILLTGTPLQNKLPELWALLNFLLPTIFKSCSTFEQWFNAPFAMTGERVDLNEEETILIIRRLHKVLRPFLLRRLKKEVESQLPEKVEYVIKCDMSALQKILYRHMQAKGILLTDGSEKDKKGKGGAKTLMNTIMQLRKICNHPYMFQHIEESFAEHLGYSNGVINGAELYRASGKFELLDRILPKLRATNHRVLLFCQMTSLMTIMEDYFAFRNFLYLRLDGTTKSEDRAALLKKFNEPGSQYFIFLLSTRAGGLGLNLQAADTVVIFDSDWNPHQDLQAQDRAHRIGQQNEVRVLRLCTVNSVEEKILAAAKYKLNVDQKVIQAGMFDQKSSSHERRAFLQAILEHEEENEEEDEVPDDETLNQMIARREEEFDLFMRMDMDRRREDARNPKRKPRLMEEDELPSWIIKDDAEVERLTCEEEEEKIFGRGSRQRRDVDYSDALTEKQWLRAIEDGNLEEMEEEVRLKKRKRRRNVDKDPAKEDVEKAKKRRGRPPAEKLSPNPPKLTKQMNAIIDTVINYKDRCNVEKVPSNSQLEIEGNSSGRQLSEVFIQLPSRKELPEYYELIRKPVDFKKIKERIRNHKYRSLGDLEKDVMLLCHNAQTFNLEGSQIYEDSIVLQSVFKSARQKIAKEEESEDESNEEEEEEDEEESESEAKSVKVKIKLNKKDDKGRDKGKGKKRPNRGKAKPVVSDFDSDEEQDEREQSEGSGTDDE

[3] = target: T2, von Hippel-Lindau disease tumor suppressor/SWI/SNF-related matrix-associated actin-dependent regulator of chromatin subfamily A member 4 (Homo sapiens, UniProt P51532+P40337); test: PROTAC activity at VHL/SMARCA4 in human MV4-11 cells assessed as induction of […] degradation by measuring maximal efficacy incubated for 18 hrs by Western blotting analysis relative to control; format: cell-based
[4] = target: T1, von Hippel-Lindau disease tumor suppressor/SWI/SNF-related matrix-associated actin-dependent regulator of chromatin subfamily A member 2; test: PROTAC activity at VHL/SMARCA2 in human SW1573 cells assessed as induction of SMARCA2 degradation incubated for 20 hrs by Western blotting analysis; format: cell-based
Target sequence in this assay (P51531 whole entry): as the sequence (P51531 whole entry, looked up) above
Target sequence in this assay (P40337 whole entry): as the sequence (P40337 whole entry, looked up) above

NCI-H1792 [5] = test: Antiproliferative activity against human NCI-H1792 cells expressing wild-type SMARCA2 assessed as cell growth inhibition measured after 7 days by WST-8 assay; format: functional; details: NCI-H1792, 168 h, time 7 day
NCI-H1793 [6] = test: Antiproliferative activity against SMARCA4-deficient human NCI-H1793 cells assessed as cell growth inhibition measured after 7 days by WST-8 assay; format: functional; details: NCI-H1793, 168 h, time 7 day
NCI-H1299 [7] = test: Antiproliferative activity against SMARCA4-deficient human NCI-H1299 cells assessed as cell growth inhibition measured after 7 days by WST-8 assay; format: functional; details: NCI-H1299, 168 h, time 7 day
[8] = target: T1, von Hippel-Lindau disease tumor suppressor/SWI/SNF-related matrix-associated actin-dependent regulator of chromatin subfamily A member 2; test: PROTAC activity at VHL/SMARCA2 in human SW1573 cells assessed as induction of SMARCA2 degradation by measuring maximal efficacy incubated for 20 hrs by Western blotting analysis relative to control; format: cell-based
Target sequence in this assay (P40337 whole entry, looked up): as above
Target sequence in this assay (P51531 whole entry, looked up): as the sequence (P51531 whole entry, looked up) above

NCI-H1792 [9] = test: Antiproliferative activity against human NCI-H1792 cells expressing wild-type SMARCA2 assessed as cell growth inhibition by measuring maximal efficacy measured after 7 days by WST-8 assay relative to control; format: functional; details: time 7 day
NCI-H1793 [10] = test: Antiproliferative activity against SMARCA4-deficient human NCI-H1793 cells assessed as cell growth inhibition by measuring maximal efficacy measured after 7 days by WST-8 assay relative to control; format: functional; details: time 7 day
[11] = target: T2, von Hippel-Lindau disease tumor suppressor/SWI/SNF-related matrix-associated actin-dependent regulator of chromatin subfamily A member 4; test: PROTAC activity at VHL/C-terminal HiBiT fused SMARCA4 in human HeLa cells assessed as induction of SMARCA4 degradation incubated for 6 to 48 hrs by Nano-Glo HiBiT analysis; format: cell-based; details: dose lower 1e-05 µM, dose upper 1.0 µM, time 6-48 hrs
[12] = target: T1, von Hippel-Lindau disease tumor suppressor/SWI/SNF-related matrix-associated actin-dependent regulator of chromatin subfamily A member 2; test: PROTAC activity at VHL/C-terminal HiBiT fused SMARCA2 in human HeLa cells assessed as induction of SMARCA2 degradation by measuring maximal efficacy incubated for 24 hrs by Nano-Glo HiBiT analysis relative to control; format: cell-based
Target sequence in this assay (P40337 whole entry, looked up): as the sequence (P40337 whole entry, looked up) above
Target sequence in this assay (P51531 whole entry, looked up): as the sequence (P51531 whole entry, looked up) above

SK-MEL-5 [13] = test: Antiproliferative activity against SMARCA4-deficient human SK-MEL-5 cells assessed as cell growth inhibition measured after 7 days by WST-8 assay; format: functional; details: SK-MEL-5, 168 h, time 7 day
SK-MEL-5 [14] = test: Antiproliferative activity against SMARCA4-deficient human SK-MEL-5 cells assessed as cell growth inhibition by measuring maximal efficacy measured after 7 days by WST-8 assay relative to control; format: functional; details: time 7 day
[15] = Antiproliferative activity against SMARCA4-deficient human NCI-H1568 cells assessed as cell growth inhibition measured after 7 days by WST-8 assay; format: functional; details: NCI-H1568, 168 h, time 7 day
NCI-H1944 [16] = test: Antiproliferative activity against SMARCA4-deficient human NCI-H1944 cells assessed as cell growth inhibition by measuring maximal efficacy measured after 7 days by WST-8 assay relative to control; format: functional; details: time 7 day
NCI-H1693 [17] = test: Antiproliferative activity against SMARCA4-deficient human NCI-H1693 cells assessed as cell growth inhibition measured after 7 days by WST-8 assay; format: functional; details: NCI-H1693, 168 h, time 7 day
NCI-H1975 [18] = test: Antiproliferative activity against human NCI-H1975 cells expressing wild-type SMARCA2 assessed as cell growth inhibition by measuring maximal efficacy measured after 7 days by WST-8 assay relative to control; format: functional; details: time 7 day
[19] = target: T2, von Hippel-Lindau disease tumor suppressor/SWI/SNF-related matrix-associated actin-dependent regulator of chromatin subfamily A member 4; test: PROTAC activity at VHL/SMARCA4 in human SW1573 cells assessed as induction of […] degradation by measuring maximal efficacy incubated for 20 hrs by Western blotting analysis relative to control; format: cell-based
[20] = target: T2, von Hippel-Lindau disease tumor suppressor/SWI/SNF-related matrix-associated actin-dependent regulator of chromatin subfamily A member 4; test: PROTAC activity at VHL/C-terminal HiBiT fused SMARCA4 in human HeLa cells assessed as induction of SMARCA4 degradation by measuring maximal efficacy incubated for 24 hrs by Nano-Glo HiBiT analysis relative to control; format: cell-based
NCI-H1975 [21] = test: Antiproliferative activity against human NCI-H1975 cells expressing wild-type SMARCA2 assessed as cell growth inhibition measured after 7 days by WST-8 assay; format: functional; details: NCI-H1975, 168 h, time 7 day
NCI-H647 [22] = test: Antiproliferative activity against human NCI-H647 cells expressing wild-type SMARCA2 assessed as cell growth inhibition measured after 7 days by WST-8 assay; format: functional; details: NCI-H647, 168 h, time 7 day
[23] = target: T2, von Hippel-Lindau disease tumor suppressor/SWI/SNF-related matrix-associated actin-dependent regulator of chromatin subfamily A member 4; test: PROTAC activity at VHL/SMARCA4 in human SW1573 cells assessed as induction of […] degradation incubated for 20 hrs by Western blotting analysis; format: cell-based
NCI-H838 [24] = test: Antiproliferative activity against SMARCA4-deficient human NCI-H838 cells assessed as cell growth inhibition by measuring maximal efficacy measured after 7 days by WST-8 assay relative to control; format: functional; details: time 7 day
SK-MEL-28 [25] = test: Antiproliferative activity against human SK-MEL-28 cells expressing wild-type SMARCA2 assessed as cell growth inhibition measured after 7 days by WST-8 assay; format: functional; details: SK-MEL-28, 168 h, time 7 day
[26] = target: T2, von Hippel-Lindau disease tumor suppressor/SWI/SNF-related matrix-associated actin-dependent regulator of chromatin subfamily A member 4; test: PROTAC activity at VHL/C-terminal HiBiT fused SMARCA4 in human HeLa cells assessed as induction of SMARCA4 degradation incubated for 24 hrs by Nano-Glo HiBiT analysis; format: cell-based
NCI-H647 [27] = test: Antiproliferative activity against human NCI-H647 cells expressing wild-type SMARCA2 assessed as cell growth inhibition by measuring maximal efficacy measured after 7 days by WST-8 assay relative to control; format: functional; details: time 7 day
[28] = target: T1, von Hippel-Lindau disease tumor suppressor/SWI/SNF-related matrix-associated actin-dependent regulator of chromatin subfamily A member 2; test: PROTAC activity at VHL/C-terminal HiBiT fused SMARCA2 in human HeLa cells assessed as induction of SMARCA2 degradation incubated for 6 to 48 hrs by Nano-Glo HiBiT analysis; format: cell-based; details: dose lower 1e-06 µM, dose upper 1.0 µM, time 6-48 hrs
Target sequence in this assay (P40337 whole entry, looked up): as the sequence (P40337 whole entry, looked up) above
Target sequence in this assay (P51531 whole entry, looked up): as the sequence (P51531 whole entry, looked up) above

[29] = target: T2, von Hippel-Lindau disease tumor suppressor/SWI/SNF-related matrix-associated actin-dependent regulator of chromatin subfamily A member 4; test: PROTAC activity at VHL/C-terminal HiBiT fused SMARCA4 in human HeLa cells assessed as induction of SMARCA4 degradation at 0.00001 to 1 uM by Nano-Glo HiBiT analysis; format: cell-based; details: dose lower 1e-05 µM, dose upper 1.0 µM, time 6-48 hrs, TDE = time-dependent effect
A549 [30] = test: Antiproliferative activity against SMARCA4-deficient human A549 cells assessed as cell growth inhibition measured after 7 days by WST-8 assay; format: functional; details: A549, 168 h, time 7 day
A549 [31] = test: Antiproliferative activity against SMARCA4-deficient human A549 cells assessed as cell growth inhibition by measuring maximal efficacy measured after 7 days by WST-8 assay relative to control; format: functional; details: time 7 day
[32] = target: T1, von Hippel-Lindau disease tumor suppressor/SWI/SNF-related matrix-associated actin-dependent regulator of chromatin subfamily A member 2; test: PROTAC activity at VHL/C-terminal HiBiT fused SMARCA2 in human HeLa cells assessed as induction of SMARCA2 degradation at 0.000001 to 1 uM by Nano-Glo HiBiT analysis; format: cell-based; details: dose lower 1e-06 µM, dose upper 1.0 µM, time 6-48 hrs, TDE = time-dependent effect
Target sequence in this assay (P40337 whole entry, looked up): as the sequence (P40337 whole entry, looked up) above
Target sequence in this assay (P51531 whole entry, looked up): as the sequence (P51531 whole entry, looked up) above

NCI-H1944 [33] = test: Antiproliferative activity against SMARCA4-deficient human NCI-H1944 cells assessed as cell growth inhibition measured after 7 days by WST-8 assay; format: functional; details: NCI-H1944, 168 h, time 7 day
[34] = target: T1, von Hippel-Lindau disease tumor suppressor/SWI/SNF-related matrix-associated actin-dependent regulator of chromatin subfamily A member 2; test: PROTAC activity at VHL/C-terminal HiBiT fused SMARCA2 in human HeLa cells assessed as induction of SMARCA2 degradation incubated for 24 hrs by Nano-Glo HiBiT analysis; format: cell-based
Target sequence in this assay (P51531 whole entry): as the sequence (P51531 whole entry, looked up) above
Target sequence in this assay (P40337 whole entry): as the sequence (P40337 whole entry, looked up) above

NCI-H838 [35] = test: Antiproliferative activity against SMARCA4-deficient human NCI-H838 cells assessed as cell growth inhibition measured after 7 days by WST-8 assay; format: functional; details: NCI-H838, 168 h, time 7 day
NCI-H1299 [36] = test: Antiproliferative activity against SMARCA4-deficient human NCI-H1299 cells assessed as cell growth inhibition by measuring maximal efficacy measured after 7 days by WST-8 assay relative to control; format: functional; details: time 7 day
NCI-H1693 [37] = test: Antiproliferative activity against SMARCA4-deficient human NCI-H1693 cells assessed as cell growth inhibition by measuring maximal efficacy measured after 7 days by WST-8 assay relative to control; format: functional; details: time 7 day
[38] = Antiproliferative activity against SMARCA4-deficient human NCI-H1568 cells assessed as cell growth inhibition by measuring maximal efficacy measured after 7 days by WST-8 assay relative to control; format: functional; details: time 7 day
SK-MEL-28 [39] = test: Antiproliferative activity against human SK-MEL-28 cells expressing wild-type SMARCA2 assessed as cell growth inhibition by measuring maximal efficacy measured after 7 days by WST-8 assay relative to control; format: functional; details: time 7 day
[40] = target: SWI/SNF-related matrix-associated actin-dependent regulator of chromatin subfamily A member 2 (Homo sapiens, UniProt P51531); test: Binding affinity to SMARCA2 (unknown origin)

Compound	Kd [1]	GI50 (NCI-H1792 [5])	GI50 (NCI-H1793 [6])	GI50 (NCI-H1299 [7])	Imax (NCI-H1792 [9])	Imax (NCI-H1793 [10])	Emax [12]	GI50 (SK-MEL-5 [13])	Imax (SK-MEL-5 [14])	GI50 [15]	Imax (NCI-H1944 [16])	GI50 (NCI-H1693 [17])	Imax (NCI-H1975 [18])	Emax [20]	GI50 (NCI-H1975 [21])	GI50 (NCI-H647 [22])	Imax (NCI-H838 [24])	GI50 (SK-MEL-28 [25])	DC50 [26]	Imax (NCI-H647 [27])	further results
CN1CCN(/C=C2\CCn3c2nc(=O)c2c(Cl)cccc23)CC1	417 nM																				
Cc1ncsc1-c1ccc(CNC(=O)[C@@H]2C[C@@H](O)CN2C(=O)[C@@H](NC(=O)C2(F)CC2)C(C)(C)C)c(OCCOc2ccc(CN3CCN(c4cc(-c5ccccc5O)nnc4N)CC3)cc2)c1																					Emax [2]: > 95%; Emax [3]: > 95%
Cc1ncsc1-c1ccc([C@H](C)NC(=O)[C@@H]2C[C@@H](O)CN2C(=O)[C@@H](c2cc(N3CCC(CN4CCC(O[C@H]5C[C@H](Oc6cccc(CN7C8CCC7CN(c7cc(-c9ccccc9O)nnc7N)C8)c6)C5)CC4)CC3)no2)C(C)C)cc1		17 nM	1 nM	31 nM	69%	67%	96%	0.4 nM	96%	0.3 nM	87%	0.2 nM	50%	98%	18 nM	8.1 nM	93%	8.1 nM	2 nM	68%	DC50 [4]: 0.039 nM; Emax [8]: 96%; Activity [11]: Dose-Dependent Effect; Emax [19]: 92%; DC50 [23]: 1.1 nM; Activity [28]: Dose-Dependent Effect; Activity [29]: Tde; GI50 (A549 [30]): 3.3 nM; Imax (A549 [31]): 52%; Activity [32]: Tde; GI50 (NCI-H1944 [33]): 0.9 nM; DC50 [34]: 0.12 nM; GI50 (NCI-H838 [35]): 5 nM; Imax (NCI-H1299 [36]): 68%; Imax (NCI-H1693 [37]): 82%; Imax [38]: 84%; Imax (SK-MEL-28 [39]): 92%
Cc1ncsc1-c1ccc([C@H](C)NC(=O)[C@@H]2C[C@@H](O)CN2C(=O)[C@@H](NC(=O)CCCCCCCCCn2cc(-c3cc(-c4ccccc4O)nnc3N)cn2)C(C)(C)C)cc1		60 nM	5 nM	100 nM	86%	72%	93%	2.5 nM	95%	2.5 nM	87%	3.3 nM	63%	94%	38 nM	76 nM	91%	32 nM	8 nM	77%	GI50 (A549 [30]): 16 nM; Imax (A549 [31]): 53%; GI50 (NCI-H1944 [33]): 4.8 nM; DC50 [34]: 2 nM; GI50 (NCI-H838 [35]): 48 nM; Imax (NCI-H1299 [36]): 81%; Imax (NCI-H1693 [37]): 81%; Imax [38]: 82%; Imax (SK-MEL-28 [39]): 90%
Cn1cc(-c2cc(-c3ccccc3O)nnc2N)cn1	12.8 nM																				Kd [40]: 10 nM
